In ChEMBL document CHEMBL1201862, “PubChem BioAssay data set” (2004):
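Tested at 5 concentrations; 48 h exposure; 96-well plates; endpoints linearly interpolated, else capped at highest concentration. At the GI50, growth is halved.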 The source made the active and inactive calls. No stated cut-off is given here; in the data, active = GI50 up to about 1.1 µM and inactive = higher.

How the values were obtained:
Test in all cases: NCI anticancer screen, dose series, 48 h
[1] = tested on: HOP-62
[2] = tested on: EKVX
[3] = tested on: HCC 2998
[4] = tested on: NCI-H460
[5] = tested on: SN12C
[6] = tested on: RPMI-8226
[7] = tested on: DU-145
[8] = tested on: HT-29
[9] = tested on: COLO 205
[10] = tested on: UACC-257
[11] = tested on: KM12
[12] = tested on: UO-31
[13] = tested on: HOP-92
[14] = tested on: LOX IMVI
[15] = tested on: Malme-3M
[16] = tested on: MDA-MB-231
[17] = tested on: MDA-N
[18] = tested on: RXF 393
[19] = tested on: SW-620
[20] = tested on: SF-268
[21] = tested on: PC-3
[22] = tested on: NCI-H23
[23] = tested on: SK-OV-3
[24] = tested on: K562
[25] = tested on: U-251
[26] = tested on: CCRF-CEM
[27] = tested on: UACC-62
[28] = tested on: OVCAR-8
[29] = tested on: SR
[30] = tested on: SF-295
[31] = tested on: Hs-578T
[32] = tested on: OVCAR-4
[33] = tested on: CAKI-1
[34] = tested on: SNB-19
[35] = tested on: MCF7
[36] = tested on: M14
[37] = tested on: A498
[38] = tested on: HCT-116
[39] = tested on: NCI-H226
[40] = tested on: NCI-H522
[41] = tested on: BT-549
[42] = tested on: MDA-MB-435
[43] = tested on: OVCAR-5
[44] = tested on: IGROV-1
[45] = tested on: A549
[46] = tested on: MOLT-4
[47] = tested on: SK-MEL-5
[48] = tested on: SNB-75
[49] = tested on: 786-0
[50] = tested on: SK-MEL-28
[51] = tested on: SF-539
[52] = tested on: HCT-15
[53] = tested on: NCI/ADR-RES
[54] = tested on: ACHN
[55] = tested on: OVCAR-3
[56] = tested on: TK-10
[57] = tested on: SK-MEL-2
[58] = tested on: HL-60

COCOC1C=CCCCC2=CC(C)=C(CC1)O2 (stereo unspecified)
GI50 [1]: > 100 µM (inactive)
GI50 [2]: > 100 µM (inactive)
GI50 [3]: > 100 µM (inactive)
GI50 [4]: > 100 µM (inactive)
GI50 [5]: > 100 µM (inactive)
GI50 [6]: > 100 µM (inactive)
GI50 [7]: > 100 µM (inactive)
GI50 [8]: 99.1 µM (inactive)
GI50 [9]: > 100 µM (inactive)
GI50 [10]: > 100 µM (inactive)
GI50 [11]: > 100 µM (inactive)
GI50 [12]: > 100 µM (inactive)
GI50 [13]: > 100 µM (inactive)
GI50 [14]: > 100 µM (inactive)
GI50 [15]: > 100 µM (inactive)
GI50 [16]: > 100 µM (inactive)
GI50 [17]: > 100 µM (inactive)
GI50 [18]: > 100 µM (inactive)
GI50 [19]: > 100 µM (inactive)
GI50 [20]: > 100 µM (inactive)
GI50 [21]: > 100 µM (inactive)
GI50 [22]: > 100 µM (inactive)
GI50 [23]: > 100 µM (inactive)
GI50 [24]: > 100 µM (inactive)
GI50 [25]: > 100 µM (inactive)
GI50 [26]: 74.6 µM (inactive)
GI50 [27]: > 100 µM (inactive)
GI50 [28]: > 100 µM (inactive)
GI50 [29]: 61.7 µM (inactive)
GI50 [30]: > 100 µM (inactive)
GI50 [31]: > 100 µM (inactive)
GI50 [32]: > 100 µM (inactive)
GI50 [33]: > 100 µM (inactive)
GI50 [34]: > 100 µM (inactive)
GI50 [35]: > 100 µM (inactive)
GI50 [36]: > 100 µM (inactive)
GI50 [37]: > 100 µM (inactive)
GI50 [38]: > 100 µM (inactive)
GI50 [39]: > 100 µM (inactive)
GI50 [40]: > 100 µM (inactive)
GI50 [41]: > 100 µM (inactive)
GI50 [42]: > 100 µM (inactive)
GI50 [43]: > 100 µM (inactive)
GI50 [44]: > 100 µM (inactive)
GI50 [45]: > 100 µM (inactive)
GI50 [46]: 42.3 µM (inactive)
GI50 [47]: > 100 µM (inactive)
GI50 [48]: > 100 µM (inactive)
GI50 [49]: > 100 µM (inactive)
GI50 [50]: > 100 µM (inactive)
GI50 [51]: > 100 µM (inactive)
GI50 [52]: > 100 µM
GI50 [53]: > 100 µM (inactive)
GI50 [54]: > 100 µM (inactive)
GI50 [55]: 68.4 µM (inactive)
GI50 [56]: > 100 µM (inactive)

CSC1=C(C#N)C(=O)N(c2ccc(C)cc2)C(=S)C1C#N (stereo unspecified)
GI50 [1]: > 100 µM (inactive)
GI50 [2]: > 100 µM (inactive)
GI50 [3]: > 100 µM (inactive)
GI50 [4]: > 100 µM (inactive)
GI50 [5]: > 100 µM (inactive)
GI50 [8]: > 100 µM (inactive)
GI50 [9]: > 100 µM (inactive)
GI50 [10]: > 100 µM (inactive)
GI50 [11]: > 100 µM (inactive)
GI50 [13]: 33.4 µM (inactive)
GI50 [14]: > 100 µM (inactive)
GI50 [15]: > 100 µM (inactive)
GI50 [16]: > 100 µM (inactive)
GI50 [17]: > 100 µM (inactive)
GI50 [18]: > 100 µM (inactive)
GI50 [19]: > 100 µM (inactive)
GI50 [20]: > 100 µM (inactive)
GI50 [21]: > 100 µM (inactive)
GI50 [57]: > 100 µM (inactive)
GI50 [23]: > 100 µM (inactive)
GI50 [24]: > 100 µM (inactive)
GI50 [25]: > 100 µM (inactive)
GI50 [26]: > 100 µM (inactive)
GI50 [27]: > 100 µM (inactive)
GI50 [28]: > 100 µM (inactive)
GI50 [30]: > 100 µM (inactive)
GI50 [31]: > 100 µM (inactive)
GI50 [32]: > 100 µM (inactive)
GI50 [33]: > 100 µM (inactive)
GI50 [34]: > 100 µM (inactive)
GI50 [35]: > 100 µM (inactive)
GI50 [36]: > 100 µM (inactive)
GI50 [37]: > 100 µM (inactive)
GI50 [38]: > 100 µM (inactive)
GI50 [39]: > 100 µM (inactive)
GI50 [40]: > 100 µM (inactive)
GI50 [41]: > 100 µM (inactive)
GI50 [42]: > 100 µM (inactive)
GI50 [43]: > 100 µM (inactive)
GI50 [44]: > 100 µM (inactive)
GI50 [45]: > 100 µM (inactive)
GI50 [46]: > 100 µM (inactive)
GI50 [58]: 63.8 µM (inactive)
GI50 [47]: > 100 µM (inactive)
GI50 [48]: 77.1 µM (inactive)
GI50 [49]: > 100 µM (inactive)
GI50 [50]: > 100 µM (inactive)
GI50 [51]: > 100 µM (inactive)
GI50 [52]: > 100 µM
GI50 [53]: > 100 µM (inactive)
GI50 [54]: > 100 µM (inactive)
GI50 [56]: > 100 µM (inactive)

CCOC(=O)c1cn2c(ccc3sc4ccccc4c(=O)c32)n1
GI50 [1]: > 100 µM (inactive)
GI50 [2]: > 100 µM (inactive)
GI50 [3]: > 100 µM (inactive)
GI50 [4]: > 100 µM (inactive)
GI50 [5]: > 100 µM (inactive)
GI50 [6]: > 100 µM (inactive)
GI50 [7]: > 100 µM (inactive)
GI50 [8]: > 100 µM (inactive)
GI50 [9]: > 100 µM (inactive)
GI50 [10]: > 100 µM (inactive)
GI50 [11]: > 100 µM (inactive)
GI50 [12]: > 100 µM (inactive)
GI50 [13]: 87.5 µM (inactive)
GI50 [14]: > 100 µM (inactive)
GI50 [15]: > 100 µM (inactive)
GI50 [16]: > 100 µM (inactive)
GI50 [17]: > 100 µM (inactive)
GI50 [18]: > 100 µM (inactive)
GI50 [19]: > 100 µM (inactive)
GI50 [20]: > 100 µM (inactive)
GI50 [21]: > 100 µM (inactive)
GI50 [22]: > 100 µM (inactive)
GI50 [24]: > 100 µM (inactive)
GI50 [25]: > 100 µM (inactive)
GI50 [26]: > 100 µM (inactive)
GI50 [28]: > 100 µM (inactive)
GI50 [29]: > 100 µM (inactive)
GI50 [30]: > 100 µM (inactive)
GI50 [31]: > 100 µM (inactive)
GI50 [33]: > 100 µM (inactive)
GI50 [34]: > 100 µM (inactive)
GI50 [35]: 84.3 µM (inactive)
GI50 [37]: > 100 µM (inactive)
GI50 [38]: > 100 µM (inactive)
GI50 [39]: > 100 µM (inactive)
GI50 [40]: > 100 µM (inactive)
GI50 [41]: > 100 µM (inactive)
GI50 [42]: > 100 µM (inactive)
GI50 [43]: > 100 µM (inactive)
GI50 [44]: > 100 µM (inactive)
GI50 [45]: > 100 µM (inactive)
GI50 [46]: > 100 µM (inactive)
GI50 [58]: > 100 µM (inactive)
GI50 [47]: > 100 µM (inactive)
GI50 [48]: > 100 µM (inactive)
GI50 [49]: > 100 µM (inactive)
GI50 [50]: > 100 µM (inactive)
GI50 [51]: > 100 µM (inactive)
GI50 [52]: > 100 µM
GI50 [53]: > 100 µM (inactive)
GI50 [54]: > 100 µM (inactive)
GI50 [55]: > 100 µM (inactive)
GI50 [56]: > 100 µM (inactive)
